Measurements as given in patent US7763669B2, “Low-viscosity, radiation-curable formulation for producing adaptive earpieces” (Dreve-Otoplastik GmbH, priority 2004, dated 2010).

Legend:
[1] = Windowpane method for critical energy Ec and laser penetration depth Dp; assay type: physicochemical; conditions: small quantities added to resin formulation; for Influence of inhibitor addition on penetration depth of the laser beam Dp: FIGS. 3 and 5; for Influence of inhibitor addition on critical energy Ec: FIGS. 4 and 6
Protocol: The influence of the concentration of phenothiazine (PTZ) and 2,2-diphenyl-1-picrylhydrazyl radical (DPPH) in the formulations of Examples 1 and 2 on the penetration depth of the laser beam and the critical energy is illustrated in FIGS. 3 through 6. The laser penetration depth and the critical energy were determined using the windowpane method described by P. F. Jacobs and D. T. Reid in Rapid Prototyping & Manufacturing, Society of Manufacturing Engineers, Dearborn, Mich., 1992, 1st Ed., pp. 263-280. […] This influence of the inhibitors phenothiazine (PTZ) and 2,2-diphenyl-1-picrylhydrazyl radical (DPPH) on the is relevant parameter Ec (critical energy, mJ·cm^−2) and Dp (laser penetration depth, mils) for the stereolithographic resin differs from the influence of the inhibitors, such as p-methoxyphenol, added to the stereolithographic resins corresponding to the prior art (L. E. Levy, J. Polym. Sci., Part A, Polym. Chem. 30 (1992), 569ff). For example, in comparison to p-methoxyphenol the parameters Ec and Dp may be linearly adjusted in a wider range by small concentrations of the inhibitors. This is of great advantage, particularly for the production of such resins and adjustment of the above-described parameters. From a technical production standpoint this may be used to adjust the laser penetration depth that has a direct influence on the accuracy of the production process. For example, performing curing over a value of laser penetration depth that exceeds the desired layer thickness for the process reduces the resolution of the process. High values of the laser penetration depth play an important role in particular for transparent stereolithographic resins that preferably are used for producing otoplastic parts. In the case of stereolithographic resins in the medical field, however, in particular stereolithographic resins for the production of the above-described adaptive earpieces, the accuracy of the production, and thus, the fit, of the molded body is of paramount importance.
(§1) Table 2 lists the parameters for the above-described resins that are relevant for the stereolithographic process. All viscosity measurements were performed at 23° C. using a CVO rheometer from Bohlin Instruments. The flexural strength, modulus of elasticity, and elongation were determined in accordance with EN ISO 178 (1996), using a Zwick 1 test unit from Zwick. For determining the Ec and Dp values using the above-described windowpane method, in each case the average values were determined for 10 windowpane test pieces. The test pieces were produced using a Viper si2 SLA system (3D Systems) equipped with a Nd:YVO4 solid-state laser. The green compacts were post-cured for 2×7 min, using the Fototec PCU stroboscope irradiation unit from Dreve.

[2] = Flexural strength, modulus of elasticity and elongation per EN ISO 178 (Zwick 1 test unit) on post-cured test pieces; assay type: physicochemical
Protocol: The flexural strength, modulus of elasticity, and elongation were determined in accordance with EN ISO 178 (1996), using a Zwick 1 test unit from Zwick. The test pieces were post-cured for 2×7 min, using the PCU stroboscope irradiation unit from Dreve.
as §1

[3] = resin formulation from Example 2, inhibitor concentration 0.01 % by wt.
[4] = resin formulation from Example 2, inhibitor concentration 0.025 % by wt.
[5] = resin formulation from Example 2, inhibitor concentration 0.05 % by wt.
[6] = resin formulation from Example 2, inhibitor concentration 0.10 % by wt.
[7] = resin formulation from Example 2, inhibitor concentration 0.15 % by wt.

Compound | Influence of inhibitor addition on penetration depth of the laser beam Dp [1] | Influence of inhibitor addition on critical energy Ec [1] | Elongation to break [2, 3] [%] | Flexural strength [2, 3] [N · mm^−2] | Modulus of elasticity [2, 3] [N · mm^−2] | Elongation to break [2, 4] [%] | Flexural strength [2, 4] [N · mm^−2] | Modulus of elasticity [2, 4] [N · mm^−2] | Elongation to break [2, 5] [%] | Flexural strength [2, 5] [N · mm^−2] | Modulus of elasticity [2, 5] [N · mm^−2] | Elongation to break [2, 6] [%] | Flexural strength [2, 6] [N · mm^−2] | Modulus of elasticity [2, 6] [N · mm^−2] | Elongation to break [2, 7] [%] | Flexural strength [2, 7] [N · mm^−2] | Modulus of elasticity [2, 7] [N · mm^−2]
2,2-diphenyl-1-picrylhydrazyl radical [DPPH] | linear decrease | sharp, essentially linear increase | 13 | 61 | 1452 | 11 | 69 | 1324 | 10 | 66 | 1277 |  |  |  |  |  | 
c1ccc2c(c1)Nc1ccccc1S2 [Phenothiazine, phenothiazine] | linear decrease | sharp, essentially linear increase |  |  |  | 15 | 95 | 1867 | 13 | 95 | 1989 | 12 | 101 | 2007 | 10 | 89 | 1832
